Measurements: paper PMC9607578, “Chemopreventive Effect on Human Colon Adenocarcinoma Cells of Styrylquinolines: Synthesis, Cytotoxicity, Proapoptotic Effect and Molecular Docking Analysis” (Molecules, 2022)
Entries after “also recorded” stand apart in the source; their conditions may differ. Like-named read-outs stand apart in the source and are kept apart here.

Columns and labels:
HaCaT cells = assay: Cytotoxic activity, sulforhodamine B (SRB) staining; assay type: cell-based; details: Homo sapiens, read-out: HaCaT IC50
Procedure: (§1) For the biological assays, the human colon adenocarcinoma cell line SW480 and its metastatic derivative SW620 were used. Additionally, the nonmalignant cell line HaCaT was used to find the selectivity index of the compounds. All cell lines were obtained by the Colombian Plant Chemistry Group of the Faculty of Exact and Natural Sciences of the University of Antioquia (Medellín, Colombia) from the European Collection of Authenticated Cell Cultures (ECACC, Salisbury, UK). Cells were cultured in a DMEM medium with 4500 mg/L of glucose and L-glutamine (Sigma-Aldrich, Burlington, MA, USA), supplemented with 10% heat-inactivated (56 °C) horse serum (Gibco, Waltham, MA, USA), 1% penicillin/streptomycin (Sigma-Aldrich, Burlington, MA, USA), and 1% non-essential amino acids (Sigma-Aldrich, Burlington, MA, USA). For all experiments, horse serum was reduced to 3%, and the medium was supplemented with […] of transferrin, 5 ng/mL of selenium, and […] of insulin (ITS; Sigma-Aldrich, Burlington, MA, USA). All cell lines were incubated at 37 °C in a 5% CO2 atmosphere. Additionally, cell cultures were constantly monitored with PCR (Sigma-Aldrich, Burlington, MA, USA) for Mycoplasma spp. to control contamination with this agent.
(§2) To evaluate the effect of styrylquinolines on the viability of the SW480, SW620, and HaCaT cell lines, sulforhodamine B (SRB) staining was used. SRB is a colorimetric assay that indirectly estimates the number of living cells based on the ability of SRB to bind to protein components of adherent cells. Briefly, the malignant cell lines were seeded at a final density of 2.0 × 10^4 cells/well, and the nonmalignant cell line was seeded at a final density of 1.5 × 10^4 cells/well in 96-well tissue culture plates. All cell lines were incubated at 37 °C in a 5% CO2 atmosphere for 24 h to enable cell adherence, and they were then treated for 24 and 48 h with increasing concentrations (0.01–160 µM) of the styrylquinolines or their respective precursors (8-hydroxyquinoline and resveratrol), as well as 1% DMSO (negative control) and 5-FU (standard drug). After treatment, cells were fixed with trichloroacetic acid (50% v/v; PanReac AppliChem, Barcelona, Spain) for a period of one hour at 4 °C. After this, the cells were incubated for 30 min at room temperature with 0.4% (w/v) SRB (Sigma-Aldrich, Burlington, MA, USA). To remove unbound SRB, the cells were washed with 1% acetic acid, and the plates were allowed to dry at room temperature. Protein-bound SRB was solubilized with 10 mM Tris-base (Amresco, Cleveland, OH, USA) for 30 min at room temperature under constant agitation, and absorbance was measured at 490 nm in a microplate reader (Bio-Rad iMark^TM, Hercules, CA, USA). Finally, the concentration of the compound that inhibits 50% of cell growth (IC50) and the selectivity index (SI) were determined.

SW480 cells [1] = assay: as above; assay type: cell-based, human; details: for IC50: Homo sapiens, read-out: SW480 IC50
Procedure: as §1, §2

SW620 cells [2] = assay: as above; assay type: cell-based, human; details: for IC50: Homo sapiens, read-out: SW620 IC50
Procedure: as §1, §2

SW480 cells [3] = assay: Antiproliferative activity, SRB staining, 0-8 days; assay type: cell-based, human
Procedure: (§3) The antiproliferative activity of styrylquinolines with higher selective cytotoxicity toward malignant cells was also tested with SRB staining. Briefly, cells were seeded to a final density of 2.5 × 10^3 cells/well in 96-well tissue culture plates and incubated under the same conditions described for cytotoxic activity. After 24 h, the cells were treated with increasing concentrations (5–80 µM) of the selected hybrids or with 1% DMSO (negative control) for 0, 2, 4, 6, and 8 days. Culture media were replaced every 48 h to guarantee the basic nutrients required for cell growth and viability, maintaining the concentrations of each of the selected hybrids. After each incubation time, cells were fixed and stained, and the absorbance was measured as described above.

SW620 cells [4] = assay: Antiproliferative activity, SRB staining, 0-8 days; assay type: cell-based, human
Procedure: as §3

SW620 cells [5] = assay: Apoptosis, APO-DIRECT kit (FITC-dUTP/PI), flow cytometry; assay type: cell-based, human; details: treated at IC50
Procedure: To assess whether the chosen styrylquinolines generated apoptosis in malignant cells, the APO-DIRECT^TM kit (Chemicon^R International, Temecula, CA, USA) was used following the manufacturer’s instructions. Briefly, the malignant cells were seeded at a final density of 1.1 × 10^6 cells in a T75 culture flask and incubated for 24 h at 37 °C in a 5% CO2 atmosphere. […] After incubation time, cells were fixed and stained with FITC-dUTP and propidium iodide (PI), respectively, according to the manufacturer’s protocol. Analysis was conducted via flow cytometry (LSR Fortessa; BD Biosciences, San Jose, CA, USA) and FlowJo 7.6 software. All PI-FITC-positive cells were considered to be apoptotic cells.

SW620 cells [6] = assay: Apoptosis markers (Bcl-2, active caspase 3, cleaved PARP), human apoptosis panel, MAGPIX; assay type: cell-based; details: vs negative control
Procedure: (§4) To assess whether styrylquinolines had any effect on the expression of immunological markers associated with the inflammatory process, malignant cells were seeded at a final density of 2.5 × 10^5 cells/well in 6-well tissue culture plates, and cell adherence was allowed. […] After the incubation time, the supernatant was collected, and the levels of the following analytes were measured using the ProcartaPlex Human Th1/Th2/Th9/Th17/Th22/Treg 18-plex panel (Invitrogen) according to the manufacturer’s protocol: GM-CSF, IFN-γ, TNF-α, IL-10, IL-12p70, IL-13, IL-17A, IL-18, IL-1β, IL-2, IL-21, IL-22, IL-23, IL-27, IL-4, IL-5, IL-6, and IL-9. Furthermore, to evaluate the participation of these hybrids in the production of some markers associated with the apoptosis process (Bcl-2, active Caspase-3 and cleaved PARP) in colorectal cancer cells, the human apoptosis panel (Invitrogen, Waltham, Massachusetts, United States) was used following the manufacturer’s instructions. To normalize the concentration of each marker, total proteins were quantified using the PierceTM BCA kit (Thermo Fisher Scientific, Waltham, MA, USA).
(§5) In both cases, the reading was performed in the MAGPIX marker multiplex analyzer (Luminex XMAP, Austin, TX, USA). The concentration of each molecule was extrapolated from the calibration curve (individual for each marker) obtained from the standards provided by the kit.

SW480 cells [7] = assay: Immunological markers, ProcartaPlex 18-plex panel, MAGPIX; assay type: cell-based, human; details: at IC50
Procedure: as §4, §5

SW620 cells [8] = assay: as above; assay type: cell-based, human; details: at IC50
Procedure: as §4, §5

[9] = SW480, 24 h treatment, mean ± SE
[10] = SW480, 48 h treatment, mean ± SE
[11] = SW-620, 24 h treatment, mean ± SE
[12] = SW-620, 48 h treatment, mean ± SE

| Structure (SMILES) | IC50 (HaCaT cells; 24 h treatment, mean ± SE) [µM] | IC50 (HaCaT cells; 48 h treatment, mean ± SE) [µM] | SI (IC50 HaCaT / IC50 SW480) (SW480 cells [1]; 24 h treatment) | SI (IC50 HaCaT / IC50 SW480) (SW480 cells [1]; 48 h treatment) | IC50 (SW480 cells [1]; [9]) [µM] | IC50 (SW480 cells [1]; [10]) [µM] | SI (IC50 HaCaT / IC50 SW620) (SW620 cells [2]; 24 h treatment) | SI (IC50 HaCaT / IC50 SW620) (SW620 cells [2]; 48 h treatment) | IC50 (SW620 cells [2]; [11]) [µM] | IC50 (SW620 cells [2]; [12]) [µM] | also measured |
| --- | --- | --- | --- | --- | --- | --- | --- | --- | --- | --- | --- |
| Oc1ccc(/C=C/c2ccc3cccc(O)c3n2)cc1 [Compound 3a] | 232 ± 29.2 | 47.9 ± 3.3 | 3.4 | 1.8 | 67.7 ± 2.8 | 26.5 ± 4 | 3.8 | 2.9 | 60.5 ± 2.9 | 16.6 ± 2.2 | Concentration required to significantly decrease cell viability percentage from day 2 post-treatment (SW480 cells [3]; SW480, day 2): 20 µM; Concentration from which cell viability percentage is decreased to 0% / high percentage of reduction (SW480 cells [3]; SW480, treatment up to 8 days): 10 µM; Concentration required to significantly decrease cell viability percentage from day 2 post-treatment (SW620 cells [4]; SW620, day 2): 5 µM; Concentration from which cell viability percentage is decreased to 0% / high percentage of reduction (SW620 cells [4]; SW620, treatment up to 8 days): 10 µM; Apoptotic cells (cell death by apoptosis) (SW620 cells [5]; SW620, 24 h): 6.8%; Apoptotic cells (cell death by apoptosis) (SW620 cells [5]; SW620, 48 h): 21.5%; Levels of Bcl-2 and cleaved PARP (SW620 cells [6]; SW620, 24 and 48 h): did not show significant differences; Levels of active caspase 3 (SW620 cells [6]; SW620, 24 and 48 h post-treatment): significantly increased; Levels of immunological markers (SW480 cells [7]; SW480, 24 h post-treatment): significant increases in the levels of GM-CSF, IFN gamma, IL-12p70, IL-4, IL-6, IL-10, and IL-17A; Levels of immunological markers (SW480 cells [7]; SW480, 48 h post-treatment): significant increases in GM-CSF, IFN gamma, IL-4, IL-6, IL-10 and IL-17A levels; also recorded: significant increases in the levels of IL-1 beta, IL-13, IL-18, IL-2, TNF alpha, IL-22, IL-27, and IL-9; Levels of immunological markers (SW620 cells [8]; SW620, 24 h post-treatment): significant increase in the levels of GM-CSF, IL-13, IL-18, IL-4, TNF alpha, IL-22, and IL-9; Levels of immunological markers (SW620 cells [8]; SW620, 48 h post-treatment): levels of IL-4 and IL-10 were significantly increased |
| Oc1ccc(/C=C/c2ccc3cccc(O)c3n2)c(O)c1 [Compound 3c] | 110 ± 12.7 | 38.4 ± 6.2 | 3.0 | 1.0 | 37.1 ± 3.8 | 38.4 ± 3.8 | 1.8 | 1.9 | 62 ± 4 | 20.7 ± 3.1 |  |
| O=c1[nH]cc(F)c(=O)[nH]1 [Compound 5-FU, 5-Fluorouracil, reference compound] | > 2000 | 38.8 ± 7.2 | 2.0 |  | > 2000 | 748 ± 158 |  | 0.1 | > 2000 | 296 ± 39.7 |  |
| COc1cc(CCc2ccc3cccc(O)c3n2)ccc1O [Compound 4b, 2-(4-hydroxy-3-methoxyphenethyl)quinolin-8-ol] | 109 ± 8.1 | 53.6 ± 2.2 | 1.2 | 1.2 | 93.4 ± 16.6 | 43.2 ± 2 | 1.9 | 2.9 | 58.8 ± 5.5 | 18.6 ± 2 |  |
| Oc1ccc(/C=C/c2cc(O)cc(O)c2)cc1 [Resveratrol, resveratrol, reference compound] | 180 ± 7.2 | 98.2 ± 7 | 0.8 | 0.7 | 217 ± 12.8 | 136 ± 9.1 | 1.1 | 0.8 | 169 ± 3.9 | 125 ± 4.6 |  |
| Oc1ccc(CCc2ccc3cccc(O)c3n2)cc1 [Compound 4a, 2-(4-hydroxyphenethyl)quinolin-8-ol] | 65.1 ± 8.4 | 69.7 ± 3 | 0.6 | 1.1 | 117 ± 5.3 | 63.2 ± 7.1 | 1.3 | 2.4 | 51 ± 5.6 | 28.9 ± 1.2 |  |
| Oc1cccc(/C=C/c2ccc3cccc(O)c3n2)c1O [Compound 3b] | 57.2 ± 6.3 | 33.5 ± 4.9 | 0.8 | 0.9 | 72.6 ± 11 | 39 ± 3.6 | 1.2 | 3.4 | 49.1 ± 4.6 | 9.7 ± 2 |  |
| Oc1cccc2cccnc12 [Compound 8-HQ, 8-hydroxyquinoline, reference compound] |  |  | 1.0 | 1.6 |  |  | 1.6 | 1.7 |  |  | IC50 (HaCaT cells; 24 h): 87.1 ± 9.4 µM; IC50 (HaCaT cells; 48 h): 61.6 ± 4.8 µM; IC50 (SW480 cells [1]; SW480, 24 h): 89.6 ± 11.8 µM; IC50 (SW480 cells [1]; SW480, 48 h): 38.8 ± 3.2 µM; IC50 (SW620 cells [2]; SW-620, 24 h): 55.3 ± 3.6 µM; IC50 (SW620 cells [2]; SW-620, 48 h): 36.3 ± 4.8 µM |
